The subject of assay [1] is sandwich preparations of rabbit iliac artery. Briefly: 'Sandwich' bioassay preparations of iliac artery (endothelium-intact donor ring, denuded detector strip). Type of assay: cell-based. The text has this: ‘Sandwich’ preparations. Rings of iliac artery 2-3 mm wide were denuded of endothelium, cut into strips and pierced ˜2 mm from each end using a Monoject needle (0.9 mm×40 mm). These strips were introduced into the lumen of rings of endothelium-intact iliac artery 4-5 mm wide and the tissues sutured together. Composite preparations were then mounted in a Mulvany Multi Myograph (Danish Myo Technology) with the pierced denuded strips hooked onto the large vessel mountings. Tension was initially set at ˜0.25 g and readjusted during an equilibrium period of 1 h. The preparations were then incubated for 40 min with L-NAME (300 μM) and indomethacin (10 μM), constricted with PE (1 or 3 μM), and concentration-response curves constructed for ACh in the presence/absence of IBMX (20 μM), or A23187 in the presence/absence of IBMX (20 μM) or 2′5′DDA (200 μM).
(§1) Statistical Analysis All data are given as mean±SEM, where n denotes the number of animals studied for each data point, and were compared by the Student's t-test for paired or unpaired data as appropriate. P<0.05 was considered as significant. Concentration-response curves were assessed by one-way analysis of variance (ANOVA) followed by the Bonferroni multiple comparisons test.

For assay [2], the system named is rabbit iliac artery rings. Briefly: EDHF-type relaxation of isolated rabbit iliac artery rings constricted with phenylephrine. Type of assay: cell-based. The procedure:
Isolated Ring Preparations. Male New Zealand white rabbits (2-2.5 kg) were sacrificed with sodium pentobarbitone (120 mg/kg; i.v.) and the iliac artery removed and transferred to cold Holman's buffer of the following composition (mM): 120 NaCl, 5 KCl, 2.5 CaCl2, 1.3 NaH2PO4, 25 NaHCO3, 11 glucose, and 10 sucrose. […] Endothelium-intact rings were incubated for 40 min with N^G-nitro-L-arginine methyl ester (L-NAME, 300 μM) and indomethacin (10 μM) and following constriction with phenylephrine (PE) cumulative concentration-relaxation curves to ACh or A23187 were constructed. Some preparations were preincubated for 40 min with either 2′5′-dideoxyadenosine (2′5′-DDA, 200 μM), 3-isobutyl-1-methylxanthine (IBMX, 20 μM), 18α-GA (100 μM), glibenclamide (10 μM), the combination of charybdotoxin (100 nM) and apamin (300 nM), or the combination of charybdotoxin (100 nM), apamin (300 nM) and IBMX (20 μM). Concentration-response curves to ACh and A23187 were also constructed for endothelium-denuded rings in the absence/presence of IBMX (20 μM). In experiments with IBMX the concentration of PE used to induce tone was increased from 1 to 3 μM. All reagents were obtained from Sigma, U.K.
as §1

In assay [3] the test system is rabbit iliac artery rings. Type of assay: cell-based. The settings on record: for Effect on PE contractions: 2′,5′-DDA 200 μM, glibenclamide 10 μM, charybdotoxin 100 nM plus apamin 300 nM. The procedure: Isolated Ring Preparations. Male New Zealand white rabbits (2-2.5 kg) were sacrificed with sodium pentobarbitone (120 mg/kg; i.v.) and the iliac artery removed and transferred to cold Holman's buffer of the following composition (mM): 120 NaCl, 5 KCl, 2.5 CaCl2, 1.3 NaH2PO4, 25 NaHCO3, 11 glucose, and 10 sucrose. The vessels were stripped of adherent tissue, and rings 2-3 mm wide cut and suspended in organ chambers containing gassed (95% 02, 5% CO2, pH 7.4) buffer at 37 C. Tension was set at 0.25 g and during an equilibrium period of 1 h the tissues were repeatedly washed with fresh buffer and tension readjusted following stress relaxation. Endothelium-intact rings were incubated for 40 min with N^G-nitro-L-arginine methyl ester (L-NAME, 300 μM) and indomethacin (10 μM) and following constriction with phenylephrine (PE) cumulative concentration-relaxation curves to ACh or A23187 were constructed. Some preparations were preincubated for 40 min with either 2′5′-dideoxyadenosine (2′5′-DDA, 200 μM), 3-isobutyl-1-methylxanthine (IBMX, 20 μM), 18α-GA (100 μM), glibenclamide (10 μM), the combination of charybdotoxin (100 nM) and apamin (300 nM), or the combination of charybdotoxin (100 nM), apamin (300 nM) and IBMX (20 μM). Concentration-response curves to ACh and A23187 were also constructed for endothelium-denuded rings in the absence/presence of IBMX (20 μM). In experiments with IBMX the concentration of PE used to induce tone was increased from 1 to 3 μM. All reagents were obtained from Sigma, U.K.

The test system of assay [4] is smooth muscle cAMP levels. Briefly: Radioimmunoassay of cAMP in iliac artery rings. The class given is cell-based, rabbit. The procedure: Radioimmunoassay. Multiple rings from the same artery were incubated in oxygenated Holmans buffer containing L-NAME (300 μM) and indomethacin (10 μM) for 40 min at 37° C. in the presence or absence of 18α-GA (100 μM). Rings were frozen in liquid N2 at time points up to 180 s following addition of ACh or A23187 and stored at −70° C. before extraction of cAMP or cGMP in 6% trichloroacetic acid, followed by neutralization with water saturated diethyl ether and subsequent radioimmunoassay (Amersham UK). PE (1 μM) was added 3 min before the initial control point and control experiments were performed with endothelium-denuded rings. Nucleotide levels were expressed relative to protein content (27).

Assay [5] has as its system subintimal smooth muscle cells of rabbit iliac artery strips. Briefly: Membrane potential experiments (sharp microelectrode) in iliac artery strips. Type of assay: cell-based. The procedure:
Membrane Potential Experiments. Iliac artery strips were held adventitia down in an oxygenated (95% O2, 5% CO2) organ chamber by a Harp slice grid (ALA Scientific Instruments, USA) superfused (2 ml/min at 37° C.) with Holmans solution containing 300 μM L-NAME and 10 μM indomethacin. Transmembrane potential was recorded with glass capillary microelectrodes (tip resistance of 60-110 M[…] filled with 3M KCl and connected to the headstage of a SEC-10LX amplifier (NPI Electronic, Germany). Successful impalements were achieved following a sudden negative drop in potential from baseline and a stable signal for at least 2 min. To ensure recordings were made from smooth muscle cells the microelectrode was advanced into the subintima using a PCS-5000 micromanipulator (Burleigh Instruments, UK) until there had been 2-3 such negative deflections. After first obtaining control responses to ACh by direct administration into the organ chamber under conditions of no flow, the strips were washed with fresh buffer before incubation with either 200 μM […] alone or the combination of 200 μM 2′,3′-DDA plus 30 μM IBMX followed by repeat exposure to ACh.

Assay [6] has as its system gap junctions in isolated rabbit femoral arteries. Briefly: Dye transfer (calcein AM) from endothelium to media in perfused femoral arteries. Type of assay: cell-based. To be noted: for Space constant of decay of medial fluorescence: calcein AM, control 8.54 μm; for Dye within the vessel wall after intraluminal perfusion: 10 μM dye perfused through the lumen for 30 min. The procedure:
Dye Transfer. […] In control experiments arteries were perfused with 10 μM calcein, which is membrane impermeable. The vessels were subsequently removed from the myograph and fixed in 0.1 M PBS containing 0.2% glutaraldehyde and 2% formalin for 90 min before cryopreservation in OCT compound (Agar Scientific, […], UK), cooled by liquid N2. Cryosections of transverse rings (10 μm thick) were prepared and mounted onto poly-L-lysine-coated slides under Fluorsave (Calbiochem) and imaged with a TCS four-dimensional confocal laser scanning system (Leica) with the filters set for 490 nm excitation and 525 nm emission. A gallery of several images was collected at 0.5-μm steps for each sample followed by image processing by using […] software to obtain a maximum projection image.

The next assay deals with pig coronary artery. To be noted: cited from earlier work.

For `C[C@H]1O[C@@H](n2cnc3c(N)ncnc32)C[C@@H]1O` [2′,5′-DDA, 2′,5′-dideoxyadenosine], the “Maximal relaxation to A23187 in sandwich preparations with 2′,5′-DDA, % of PE-induced tone” value in assay [1] (2′,5′-DDA 200 μM) is given as 18.5±9.2%. Besides, in assay [2] (2′,5′-DDA 200 μM, A23187-evoked, endothelium-intact rings), the “Maximal relaxation to A23187 in presence of 2′,5′-DDA, % of PE-induced tone” value is 40.3±8.3%. Further, the “Maximal relaxation to ACh in presence of 2′,5′-DDA” value in assay [2] (2′,5′-DDA 200 μM, ACh-evoked, endothelium-intact rings) turned out to be 11.0±1.9%. Besides, the “Effect on PE contractions” value in assay [3] is on record as “unaffected”. Moreover, the “Effect on transient peak in cAMP levels evoked by ACh” value in assay [4] (2′,5′-DDA 200 μM, ACh 3 μM) was “abolished”.

Turning to `Nc1ncnc2c1ncn2[C@H]1CC[C@@H](CO)O1` [2′, 3′-DDA, 2′,3′-dideoxyadenoine], the “Attenuation of transmission of electrical changes in endothelial membrane potential into subintimal smooth muscle cells” value in assay [5] (200 μM, ACh-evoked) was about 75%.

For the compound `Nc1nc2c(nc(Br)n2[C@@H]2O[C@@H]3COP(=O)(O)O[C@H]3[C@H]2O)c(=O)[nH]1` [8-bromo-cGMP], the “Space constant of decay of medial fluorescence” value in assay [6] (1 mM nucleotide analogue) is 8.39 ± 0.44 μm.

Consider `CC1(C)[C@@H](O)CC[C@]2(C)[C@H]3C(=O)C=C4[C@H]5C[C@@](C)(C(=O)O)CC[C@]5(C)CC[C@@]4(C)[C@]3(C)CC[C@@H]12` [18α-GA, 18α-glycyrrhetinic acid], for which, in assay [2] (18α-GA 100 μM), the “Effect on EDHF-type relaxations evoked by A23187” value is recorded as “had no effect” and the “Effect on EDHF-type relaxations evoked by ACh” value is “effectively abolished”. The “Effect on nucleotide (cAMP) accumulation evoked by A23187” value in assay [4] (18α-GA 100 μM, A23187 3 μM) is reported as “no significant effect”. For the same compound, in assay [4] (18α-GA 100 μM, ACh 3 μM), the “Effect on transient rise in cAMP levels evoked by ACh” value is “abolished”.

Consider `CC(=O)OCC[N+](C)(C)C` [ACh, acetylcholine], for which the EC50 (as a rule, the concentration at which the effect is half-maximal) in assay [2] (Oryctolagus cuniculus, endothelium-intact rings, L-NAME + indomethacin, control of IBMX / 2′,5′-DDA series, read-out: EC50 of EDHF-type relaxation (control)) came out at 555 ± 121 nM. Further, the “Maximal EDHF-type relaxations, % of PE-induced tone” value in assay [2] (approximate, at concentrations ~3 μM, L-NAME 300 μM + indomethacin 10 μM) is about 40%. Moreover, the “Maximal EDHF-type relaxation, % of PE-induced tone (control)” value in assay [2] (endothelium-intact rings, L-NAME 300 μM + indomethacin 10 μM, control of IBMX / 2′,5′-DDA series) is recorded as 36.0±5.0%. Also, in assay [5] (3 μM Ach, intact endothelium), the “Subintimal hyperpolarization sustained below baseline” value is given as about 20 mV. In assay [4] (rings incubated with L-NAME and indomethacin, endothelium-dependent), the “Increase (elevation) in smooth muscle cAMP levels” value came to 1.5 fold.

In the case of `CC(C)Cn1c(=O)n(C)c(=O)c2[nH]cnc21` [IBMX, 3-isobutyl-1-methylxanthine], the “Maximal relaxation to A23187 in sandwich preparations with IBMX” value in assay [1] (IBMX 20 μM) was 70.0±6.50%. Besides, in assay [2] (IBMX 20 μM, A23187-evoked, endothelium-intact rings, control 50.2%), the “Maximal relaxation to A23187 in presence of IBMX” value came to 73.0 ± 8.5%. For the same compound, in assay [2] (IBMX 20 μM, ACh-evoked, endothelium-intact rings, control 36.0%), the “Maximal relaxation to ACh in presence of IBMX” value is 65.5±4.5%. The “Reversal of the 2′,3′-DDA block of hyperpolarization” value in assay [5] (IBMX 30 μM after 200 μM 2′,3′-DDA) was “completely reversed”. Also, in assay [6] (20 μM IBMX), the “Space constant of decay of medial fluorescence” value was 11.50±0.80 μm and ≈ 12 μm.

Consider `CNC[C@H](O)c1cccc(O)c1` [PE, phenylephrine], for which the PE-evoked constrictions in assay [3] (1 μM PE, L-NAME 300 μM and indomethacin 10 μM, intact endothelium, pooled data) was 2.0 ± 0.1 g. Further, in assay [3] (3 μM PE, IBMX 20 μM, pooled data), the “Initial tension restored by PE in presence of IBMX” value turned out to be 1.8 ± 0.1 g.

For the compound `O=C(O)CN(CC(=O)O)Cc1cc2c(cc1O)Oc1cc(O)c(CN(CC(=O)O)CC(=O)O)cc1C21OC(=O)c2ccccc21` [calcein], the “Dye within the vessel wall after intraluminal perfusion” value in assay [6] was “only autofluorescence of the internal elastic lamina was evident”.

`COc1cc2c3cc1Oc1cc(ccc1O)C[C@@H]1c4c(cc(OC)c(O)c4Oc4ccc(cc4)C[C@@H]3N(C)CC2)CC[N+]1(C)C` [d-tubocurarine]: in the assay with pig coronary artery, the “Effect on endothelial hyperpolarization evoked by 0.5 μM A23187” value is listed as “abolished”; the “Effect on mechanical relaxation and endothelium and smooth muscle hyperpolarizations evoked by substance P” value is “inhibited”; the “Effect on relaxation and smooth muscle hyperpolarization evoked by 0.5 μM A23187” value is “unaffected”.

In the case of `COc1ccc(Cl)cc1C(=O)NCCc1ccc(S(=O)(=O)NC(=O)NC2CCCCC2)cc1` [glibenclamide], in assay [2] (glibenclamide 10 μM), the “Effect on EDHF-type relaxations evoked by A23187” value is “did not significantly affect” and the “Effect on EDHF-type relaxations evoked by ACh” value is “did not significantly affect”. Moreover, in assay [3], the “Effect on PE contractions” value is listed as “unaffected”.

With calcein AM, in assay [6], the “Dye within the vessel wall after intraluminal perfusion” value is “detected within the vessel wall”. Besides, the “Space constant of decay of medial fluorescence (control conditions)” value in assay [6] (calcein AM 10 μM, L-NAME + indomethacin) was 8.54±0.39 μm.

Source of the values: patent US20030105165A1, “Gap junctions and EDHF” (priority 2001, published 2003).
